In ChEMBL document CHEMBL1150417, “Discovery of novel small-molecule inhibitors of human epidermal growth factor receptor-2: combined ligand and target-based approach” (J Med Chem, 2008):

What follows are compounds tested on SK-BR-3 (assay: Cytotoxicity against human SKBR3 cells at 10 uM after 72 hrs by MTT assay). Settings: not given.
Format: functional

Structure (SMILES) | Activity [%]
COc1ccc(CN(CC(=O)NC2CCCC2)C(=O)Cn2cnc3sc(C)c(C)c3c2=O)cc1 | 21
CCc1ccccc1NC(=O)NCCCNc1nc2cc(C)cc(C)c2cc1C#N | 29
CCOC(=O)c1ccc(Nc2c([N+](=O)[O-])c(=O)oc3ccccc23)cc1 | 5
CCOc1ccc(OCC)c(NC(=O)CSc2nc3c(C)cccc3cc2C#N)c1 | 16
COc1ccc(NC(=O)Cn2nnc(-c3ccccc3NC(=O)c3cccs3)n2)cc1 | 27
COc1ccc(-c2nc3cc(NC(=O)COc4ccc(C)cc4C)ccc3o2)cc1Br | 32
Cc1ccc2[nH]cc(CCNC(=O)c3cccnc3)c2c1 | 1
CCOC(=O)c1ccc(Nc2cc(C)nc3ncnn23)cc1 | 1
Cc1cc2cc(CN(Cc3cccs3)C(=O)Nc3ccccc3F)c(=O)[nH]c2cc1C | 19
CCOC(=O)c1c(-c2ccccc2)csc1NC(=O)CSc1ncnc2sc3c(c12)CCCC3 | 11
O=C(Nc1ccc(Oc2ccc3nsnc3c2)c(Cl)c1)c1cc(Cl)ccc1O | 30
Cc1ccc2[nH]c(=O)c(CN(Cc3cccs3)C(=O)c3ccco3)cc2c1 | 22
CCC(C)(C)C1CCc2sc3ncnc(N/N=C(\C)c4ccc(OC)cc4)c3c2C1 (stereo unspecified) | 12
Cc1cc(Nc2ccc(N3CCC(C)CC3)cc2)n2ncnc2n1 | 25
O=C(CSc1ncnc2sc3c(c12)CCCC3)NCc1cccc2c1OCO2 | 16
O=C(CSc1ncnc2sc3c(c12)CCCC3)Nc1ccc(S(=O)(=O)N2CCCCCC2)cc1 | 11
CCOc1ccc(Nc2nc(NCCO)nc(C)c2[N+](=O)[O-])cc1 | 32
Cc1nc2cc(NCc3ccccc3O)ccc2n1Cc1ccccc1 | 13
c1cncc(CNc2ncnc3ccccc23)c1 | 15
COc1cccc(-c2cc3cc4c(c(NCc5cc(OC)c(OC)c(OC)c5)n3n2)CCC4)c1 | 4
O=C(Nc1cccc(NC(=O)c2ccc(Cl)cc2Cl)c1)c1cccnc1 | 2
COc1ccc(CCNc2c(Cc3ccccc3)c(C)nc3ncnn23)cc1OC | 21
COc1cccc(OC)c1C(=O)Nc1ccc2c(c1)OCC(=O)N2Cc1ccccc1Cl | 2

Structure (SMILES) | Activity [%]
COc1cc(NC(=O)CSc2nnnn2-c2ccc3c(c2)OCCO3)cc(OC)c1 | 15
O=[N+]([O-])c1ccccc1-c1nnc(CSc2ncnc3sc4c(c23)CCCC4)o1 | 7
O=C(CSc1ncnc2sc3c(c12)CCC3)Nc1ccc(S(=O)(=O)N2CCOCC2)cc1 | 12
c1ccc2c(NCCCNc3ncnc4ccccc34)ncnc2c1 | 32
COc1ccc2[nH]c(=O)c(CN(CCc3cccc(C)c3)C(C)=O)cc2c1 | 5
Cc1sc(NC(=O)CSc2ncnc3sc4c(c23)CCCC4)c(C#N)c1C | 26
COc1cc(/C=N/Nc2ncnc3sc4c(c23)CCCC4)ccc1OCC(=O)Nc1ccccc1 | 32
O=C(Nc1ncnc2sc3c(c12)CCC3)c1cccs1 | 20
O=C(NC1CCCC1)C(c1cccs1)N(C(=O)Cc1cccs1)c1ccc2c(c1)OCCO2 (stereo unspecified) | 16
Cc1cc(O)nc(SCC(=O)Nc2ccc(C(=O)NC3CCCCC3)cc2)n1 | 21
Cc1nn(-c2ccccc2)c2sc(C(=O)N(CC(=O)NC3CCCC3)C3CC3)cc12 | 22
O=C(CSc1ncnc2sc3c(c12)CCCC3)Nc1nc(-c2ccc(F)cc2)cs1 | 32
CCOc1ccc(Nc2c3c(nc4ncnn24)CCC3)cc1 | 26
CC1CCc2c(sc3ncnc(NCc4ccco4)c23)C1 (stereo unspecified) | 2
COc1cc(CNCc2cccnc2)ccc1OCc1ccccc1Cl | 1
COC(=O)c1sc(NC(=O)CSc2nc(C3CC3)nc3sc4c(c23)CCCC4)nc1C | 31
Clc1cc(Nc2c3ccccc3nc3ccccc23)ccc1Oc1ccc2ccccc2c1Br | 3
CCn1nnnc1SCC(=O)Nc1ccc(OCc2ccccc2)cc1 | 19
O=C(CSc1ncnc2sc3c(c12)CCCC3)Nc1nc(-c2ccccc2)cs1 | 34
COc1cc(OCC(=O)Nc2cccc([N+](=O)[O-])c2)ccc1/C=N/Nc1ncnc2sc3c(c12)CCCC3 | 7
Cc1ccc(-c2csc3ncnc(SCC(=O)Nc4nc(-c5ccccc5)cs4)c23)cc1 | 33
Cc1ccc(S(=O)(=O)N(Cc2ccc3c(c2)OCO3)Cc2cc3ccc(C)c(C)c3[nH]c2=O)cc1 | 12

What follows are compounds tested against Receptor tyrosine-protein kinase erbB-2 (Homo sapiens, UniProt P04626) (assay: Inhibition of HER2). Settings: not given.
Sequence of Receptor tyrosine-protein kinase erbB-2 (P04626 whole entry): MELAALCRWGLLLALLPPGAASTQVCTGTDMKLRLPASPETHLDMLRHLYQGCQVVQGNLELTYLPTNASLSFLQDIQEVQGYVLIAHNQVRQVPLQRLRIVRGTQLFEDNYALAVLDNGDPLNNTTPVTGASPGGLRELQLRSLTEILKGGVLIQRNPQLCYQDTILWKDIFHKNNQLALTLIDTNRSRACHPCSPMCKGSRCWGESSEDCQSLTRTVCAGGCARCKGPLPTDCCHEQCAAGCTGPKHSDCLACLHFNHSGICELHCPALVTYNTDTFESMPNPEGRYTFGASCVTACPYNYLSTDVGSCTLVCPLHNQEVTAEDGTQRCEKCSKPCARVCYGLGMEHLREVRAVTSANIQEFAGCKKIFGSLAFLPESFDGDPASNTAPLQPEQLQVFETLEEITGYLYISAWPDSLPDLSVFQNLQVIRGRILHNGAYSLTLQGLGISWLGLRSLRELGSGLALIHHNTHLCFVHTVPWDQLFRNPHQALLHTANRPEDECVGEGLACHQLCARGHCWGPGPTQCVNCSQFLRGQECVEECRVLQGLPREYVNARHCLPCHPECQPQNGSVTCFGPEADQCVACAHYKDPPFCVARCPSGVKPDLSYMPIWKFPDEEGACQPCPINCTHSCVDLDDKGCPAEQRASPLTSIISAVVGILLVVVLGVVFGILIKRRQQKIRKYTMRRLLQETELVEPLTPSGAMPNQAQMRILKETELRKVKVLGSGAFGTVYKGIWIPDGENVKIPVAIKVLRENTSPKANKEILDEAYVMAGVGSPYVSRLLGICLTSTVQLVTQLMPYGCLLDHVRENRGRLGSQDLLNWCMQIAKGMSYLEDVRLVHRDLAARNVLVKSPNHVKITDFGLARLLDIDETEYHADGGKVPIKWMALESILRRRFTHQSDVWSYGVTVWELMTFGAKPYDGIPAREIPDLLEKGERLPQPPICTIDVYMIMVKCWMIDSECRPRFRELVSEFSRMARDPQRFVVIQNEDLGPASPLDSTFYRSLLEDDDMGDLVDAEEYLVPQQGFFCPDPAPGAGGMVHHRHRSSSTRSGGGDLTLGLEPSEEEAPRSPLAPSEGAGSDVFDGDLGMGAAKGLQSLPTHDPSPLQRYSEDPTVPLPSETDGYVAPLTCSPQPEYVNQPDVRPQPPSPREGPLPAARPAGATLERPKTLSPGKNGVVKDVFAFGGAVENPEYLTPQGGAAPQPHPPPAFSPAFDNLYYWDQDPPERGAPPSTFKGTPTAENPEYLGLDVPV

Structure (SMILES) | IC50 [nM]
CCCCn1c(S(=O)(=O)c2cc(OC)c(OC)c(OC)c2)nc2c(N)ncnc21 | 310000
Nc1ncnc2nc(Sc3cc(Cl)ccc3Cl)[nH]c12 | 120000
CS(=O)(=O)CCNCc1nc(-c2ccc3ncnc(Nc4ccc(OCc5cccc(F)c5)c(Cl)c4)c3c2)cs1 | 10
COc1cc2nccc(Nc3ccc(N4C(=O)c5ccc(Cl)cc5C4=O)c(C)c3)c2cc1OC | 1700
CONC(=O)c1ccc(F)c(Nc2ncnn3cc(NC(=O)OCCCS(C)(=O)=O)c(C(C)C)c23)c1 | 5300
c1ccc(Oc2ccc(Nc3ccnc4ccccc34)cc2)cc1 | 733
Cc1cc2nc(CBr)c(-c3ccccc3)nc2cc1C | 21000
COCOCC#CC(=O)Nc1ccc2ncnc(Nc3cccc(Br)c3)c2c1 | 9
COCC(=O)NC/C=C/c1ccc2ncnc(Nc3ccc(Oc4ccc(C)nc4)c(C)c3)c2c1 [CP-724714] | 12

These compounds were tested on SK-BR-3 (assay: Cytotoxicity against human SKBr3 cells after 72 hrs by MTT assay). Settings: SK-BR-3, 72 h.
Format: functional, cell-based

Structure (SMILES) | IC50 [µM]
CCc1cc2c(NCCc3ccc(OC)c(OC)c3)ncnc2s1 | 14
Brc1ccc2ncnc(NCCc3ccccc3)c2c1 | 15
c1ccc(OCCOc2ccc(Nc3ccnc4cc5ccccc5cc34)cc2)cc1 | 2
CN1CCN(c2ccc(Nc3ncnc4sc5c(c34)CCCC5)cc2)CC1 | 9
c1ccc(CCNc2ccnc3cc4ccccc4cc23)cc1 | 8
CCN(CC)c1ccc(NC(=O)CSc2ncnc3sc(C)c(C)c23)cc1C | 16
Fc1ccccc1CCNc1c2c(nc3ncnn13)CCCC2 | 14
CCN(CC)CCNc1ccc(Nc2ccnc3cc4ccccc4cc23)cc1 | 2
COc1ccc2nc(C)cc(Nc3ccc(Oc4ccc(Cl)cc4)c(Cl)c3)c2c1 | 5
COc1ccc2nc(C)cc(Nc3ccc(Oc4ccc5ccccc5c4)c(Cl)c3)c2c1 | 5
COc1ccc(CCNc2cc(-c3ccccc3)nc3ncnn23)cc1 | 9
CN1CCN(CCCNc2ccnc3cc4ccccc4cc23)CC1 | 15
